{
  "source": "patent US9155761B2",
  "about": "“Method for the treatment of cancer” (UNIVERSITY COLLEGE CORK, NATIONAL UNIVERSITY OF IRELAND, …, priority 2009, dated 2015)",
  "key": {"OE21 [1]": {"system": "OE21", "description": "(§1) Morphological features of cells treated with 5-fluorouracil (5-FU)/cisplatin, without and with 3-MA, LY294002, Bafilomycin, Lithium chloride, rapamycin or HA14-I were examined by light microscopy. Morphologies of treated cells were examined 24 and 48 hours post treatment, treatment times are referred to in figure legends. Aliquots of vehicle control and drug treated cells were cytospun onto glass slides and stained with Rapi-Diff (Braidwood laboratories, UK). The extent of apoptotic and non-apoptotic cell death was determined by counting the cells in at least three fields of view per slide, with an average of ˜100 cells per field. Apoptotic cell death is characterized by the presence of two or more of the following morphological features: cell shrinkage, chromatin condensation, DNA degradation and fragmentation into ‘apoptotic bodies’, within an intact plasma membrane. Autophagic cell death was identified by clear elevation of cytoplasmic vesicles, loss of cytoplasmic material, pyknosis of the nuclear material and an intact nuclear membrane. Cytospin images are representative of at least three independent experiments."}, "OE19 [2]": {"system": "OE19", "assay": "Electron microscopy", "type": "cell-based, human", "conditions": "5-FU (25 μM), 48 hours", "description": "(§2) Cells were seeded on semi-porous membranes and incubated in 5-Fluoruracil (5-FU) for 48 hours. Cells were then fixed in a […] phosphate buffer (pH 7.4), containing 2.0% glutaraldehyde, at room temperature (RT) for 40 minutes. Cells were post-fixed in Osmium tetroxide (OsO4) at RT for 60 minutes, dehydrated in ascending grades of ethanol solutions (50%, 70%, 95%, 100% and 100% dry), prior to embedding in Araldite resin. Samples were subjected to a graded infiltration process with araldite (epoxy resin) before being set and sectioned. Representative areas were chosen for ultra-thin sectioning and samples were examined by electron microscopy."}, "OE21 [3]": {"system": "OE21", "assay": "Electron microscopy", "type": "cell-based, human", "conditions": "5-FU (25 μM), 48 hours", "description": "as §2"}, "LC3 in OE19 cells": {"system": "LC3 in OE19 cells", "assay": "LC3 / GFP-LC3 processing and distribution (Western blot, fluorescence microscopy)", "type": "cell-based, human", "description": "(§3) Total cellular protein extracts were prepared by scraping the cells into modified RIPA buffer (50 mM Tris HCl (pH 7.4), 150 mM NaCl, 0.25% Sodium deoxycholate, 1% Igepal, protease inhibitors 1 mM EDTA, 1× Pefabloc, 1× protease inhibitor cocktail, 1 mM Na3VO4, 1 mM NaF). All protein samples were separated by SDS-PAGE (10/12%) and electrophoretically transferred onto nitrocellulose membrane. All primary antibodies were incubated overnight at 4° C.: anti-phospho mTOR (Ser 2448) and anti-p70^S6K (Thr 389) (Cell Signaling Technologies, UK), anti-Beclin-1 (BD Biosciences, UK) and anti-LC3 (Medical & Biological Laboratories, Japan). The membranes were incubated with the relevant horseradish peroxidase conjugated secondary antibodies (DakoCytomation, Dublin) and detected by chemiluminescence (ECL Amersham, UK).\n(§4) To visualize and quantify the formation of autophagic vesicles, the green fluorescent protein (GFP)-LC3 (pEGFP-LC3) expression vector, kindly supplied by Dr. T. Yoshimori (National Institute of Genetics, Japan) was used. Cells were transiently transfected with the Amaxa electroporation system according to the supplier's protocol. Twenty-four hours post transfection, cells were treated with 5-FU and/or Cisplatin, fixed in 4% paraformaldehyde in PBS and transferred onto slides using a non-fluorescent fixative for analysis by fluorescence microscopy. Alternatively, Western Blot analysis was used to assess the expression and processing of LC3. […] The membrane sequestered, lipid-conjugated form of LC3-II remains with the autophagosome membrane after the vesicle has formed, and levels of both isoform are detected by Western Blot. Transfection efficiency was consistent for a given cell line, OE33 and KYSE450 cell lines (˜60-70%) compared to OE19 and OE21 cell lines (˜30%)."}, "LC3 in OE21 cells": {"system": "LC3 in OE21 cells", "assay": "LC3 / GFP-LC3 processing and distribution (Western blot, fluorescence microscopy)", "type": "cell-based, human", "description": "as §3, §4"}, "LC3 in KYSE450 cells": {"system": "LC3 in KYSE450 cells", "assay": "LC3 / GFP-LC3 processing and distribution (Western blot, fluorescence microscopy)", "type": "cell-based, human", "description": "as §3, §4"}, "LC3 in OE33 cells": {"system": "LC3 in OE33 cells", "assay": "LC3 / GFP-LC3 processing and distribution (Western blot, fluorescence microscopy)", "type": "cell-based, human", "description": "as §3, §4"}, "[4]": {"system": "CT26 (Colorectal carcinoma cells)", "assay": "CT26 colorectal carcinoma model, intratumoural Rapamycin / 5-FU", "type": "in vivo, mice", "conditions": "intratumoural thrice weekly; Rapamycin 0.6-2 mg/kg; 5-FU 20 mg/kg"}, "OE33": {"system": "OE33", "assay": "Evaluation of cell death morphology by light microscopy", "type": "cell-based, human", "conditions": "5-FU (50 μM) or cisplatin (40 μM), 48 hours", "description": "as §1"}, "OE19 [5]": {"system": "OE19", "assay": "Evaluation of cell death morphology by light microscopy", "type": "cell-based, human", "conditions": "5-FU (50 μM) or cisplatin (40 μM), 48 hours", "description": "as §1"}, "KYSE450 [6]": {"system": "KYSE450", "assay": "Evaluation of cell death morphology by light microscopy", "type": "cell-based, human", "description": "as §1"}, "OE19 [7]": {"system": "OE19", "assay": "Monodansylcadaverine (MDC)-labelled vacuoles", "type": "cell-based, human", "conditions": "25 μM", "description": "(§5) MDC is an autofluorescent weak base that accumulates in acidic lysosomal vacuoles, showing high selectivity for autophagosomes, due to the high level of unhydrolyzed membrane lipids from engulfed organelles, which enhance MDC fluorescence. Cells were incubated with 0.1 mM MDC in PBS at 37° C. for 10 minutes (Biederbick et al., 1995), washed and immediately analyzed by fluorescent microscopy."}, "KYSE450 [8]": {"system": "KYSE450", "assay": "Monodansylcadaverine (MDC)-labelled vacuoles", "type": "cell-based, human", "conditions": "25 μM", "description": "as §5"}, "[9]": {"system": "active caspase-3 in OE33 cells", "assay": "Active caspase-3 by flow cytometry", "type": "cell-based, human", "conditions": "48 hours after treatment", "description": "(§6) To examine control and 5-Fluorouracil treated cells for evidence of caspase activity cells were processed by trypsinization, 48 hours after treatment. […] This was detected with an anti rabbit FITC conjugated secondary antibody, and samples were analyzed by FACScan at 530 nm (FL-1). Percentages indicate the proportion of cells with active caspase-3, detected as an increase in the number of FITC (FL-1) labelled cells."}, "[10]": {"system": "active caspase-3 in OE19 cells", "assay": "Active caspase-3 by flow cytometry", "type": "cell-based, human", "conditions": "48 hours after treatment", "description": "as §6"}, "[11]": {"system": "active caspase-3 in KYSE450 cells", "assay": "Active caspase-3 by flow cytometry", "type": "cell-based, human", "conditions": "48 hours after treatment, range of concentrations", "description": "as §6"}, "[12]": {"system": "active caspase-3 in OE21 cells", "assay": "Active caspase-3 by flow cytometry", "type": "cell-based, human", "description": "as §6"}, "LLC-Luc cells": {"system": "LLC-Luc cells", "assay": "FITC conjugated LC3 staining of LLC-Luc cells in vitro", "type": "cell-based", "conditions": "5-FU in vitro, 24 and 48 hours", "description": "FITC conjugated LC3 (a known marker of autophagy), forms a green punctate staining pattern in the cytoplasm when it accumulates in forming autophagosomes."}, "[13]": {"conditions": "5-FU (50 μM) or cisplatin (40 μM), 48 hours"}, "[14]": {"conditions": "5-FU or cisplatin (images not shown)"}},
  "note": "“Also recorded” adds a separate entry of the source.",
  "data": [
    {"compound": "O=c1[nH]cc(F)c(=O)[nH]1", "note": "[5-FU, 5-fluorouracil]", "values": [
      {"measurement": "cell death morphology", "setting": "OE21 [1]; [13]", "result": "predominantly apoptotic cell death morphology"},
      {"measurement": "autophagic cells as a minor population", "setting": "OE21 [1]; 5-FU treated OE21 cells (FIG. 1c)", "result": 7, "unit": "%"},
      {"measurement": "ultra structural features (electron microscopy)", "setting": "OE19 [2]", "result": "numerous cytoplasmic vacuoles are evident"},
      {"measurement": "ultra structural features (electron microscopy)", "setting": "OE21 [3]", "result": "morphological changes consistent with classical apoptotic cell death"},
      {"measurement": "GFP-LC3 distribution (fluorescence microscopy)", "setting": "LC3 in OE19 cells; 5-FU (25 & 50 μM) or cisplatin (10 & 25 μM)", "result": "Redistribution of GFP-LC3 from a diffuse cytosolic to a punctate autophagosome-associated pattern; also recorded: bright punctate patterns of GFP-LC3 fluorescence"},
      {"measurement": "LC3II levels (Western blot, GFP-LC3)", "setting": "LC3 in OE19 cells; 5-FU, 24 hours", "result": "significant increase in LC3II levels"},
      {"measurement": "GFP-LC3 distribution (fluorescence microscopy)", "setting": "LC3 in OE21 cells; [14]", "result": "Diffuse cytoplasmic localization of GFP-LC3"},
      {"measurement": "induction of autophagosome-associated LC3II band (Western blot)", "setting": "LC3 in OE21 cells; 24 and 48 hours", "result": "no induction of a lower autophagosome-associated LC3II-band"},
      {"measurement": "GFP-LC3 distribution (fluorescence microscopy)", "setting": "LC3 in KYSE450 cells; 5-FU or cisplatin (data not shown)", "result": "Redistribution of GFP-LC3 from a diffuse cytosolic to a punctate autophagosome-associated pattern"},
      {"measurement": "LC3II levels (Western blot, GFP-LC3)", "setting": "LC3 in KYSE450 cells; 5-FU, 24 hours", "result": "significant increase in LC3II levels"},
      {"measurement": "GFP-LC3 distribution (fluorescence microscopy)", "setting": "LC3 in OE33 cells; [14]", "result": "Diffuse cytoplasmic localization of GFP-LC3"},
      {"measurement": "induction of autophagosome-associated LC3II band (Western blot)", "setting": "LC3 in OE33 cells; 24 and 48 hours", "result": "no induction of a lower autophagosome-associated LC3II-band"},
      {"measurement": "survival: day beyond which no animal of the group is alive / final animal euthanized", "setting": "[4]", "result": 33, "unit": "days"},
      {"measurement": "cell death morphology", "setting": "OE33", "result": "predominantly apoptotic cell death morphology"},
      {"measurement": "cell death morphology", "setting": "OE19 [5]", "result": "predominantly non-apoptotic morphology"},
      {"measurement": "cell death morphology", "setting": "KYSE450 [6]; [13]", "result": "predominantly non-apoptotic morphology"},
      {"measurement": "morphology", "setting": "KYSE450 [6]; HA14-1 (5 μM) and/or 5-FU (50 μM), 24 hours", "result": "causes autophagic phenotype"},
      {"measurement": "MDC staining pattern", "setting": "OE19 [7]", "result": "accumulation of MDC (bright blue punctate staining) throughout the cytoplasm"},
      {"measurement": "MDC staining pattern", "setting": "KYSE450 [8]", "result": "accumulation of MDC (bright blue punctate staining) throughout the cytoplasm"},
      {"measurement": "active caspase-3", "setting": "[9]", "result": "displayed active caspase-3"},
      {"measurement": "active caspase-3", "setting": "[10]", "result": "do not show caspase-3 activity"},
      {"measurement": "active caspase-3", "setting": "[11]", "result": "do not show caspase-3 activity; also recorded: fail to show any active caspase-3"},
      {"measurement": "proportion of cells with active caspase-3", "setting": "[12]; 5-FU (25 μM/50 μM), 48 hours", "result": 44, "unit": "%"},
      {"measurement": "active caspase-3", "setting": "[12]; 48 hours after treatment", "result": "displayed active caspase-3"},
      {"measurement": "autophagy (FITC conjugated LC3 punctate staining)", "setting": "LLC-Luc cells", "result": "the extent of autophagy is greatly enhanced"}
    ]}
  ]
}
